Values after ≈ are worked out from the molar mass of the structure shown.
Experiments:
Type in all cases: functional
Bacillus subtilis [1] = assay: Antimicrobial activity against Bacillus subtilis assessed as zone of inhibition at 100 ug/well after 24 hrs by agar well diffusion method; conditions: read-out: DIZ
Penicillium chrysogenum [2] = assay: Fungicidal activity against Penicillium chrysogenum incubated for 48 hrs followed by replating on PDA and incubated for 48 hrs by broth dilution test
Klebsiella pneumoniae [3] = assay: Antimicrobial activity against Klebsiella pneumoniae after 24 hrs by broth dilution test
Staphylococcus aureus [4] = assay: Antimicrobial activity against Staphylococcus aureus assessed as zone of inhibition at 50 ug/well after 24 hrs by agar well diffusion method; conditions: read-out: DIZ
Staphylococcus aureus [5] = assay: Antimicrobial activity against Staphylococcus aureus after 24 hrs by broth dilution test
Pseudomonas aeruginosa [6] = assay: Antimicrobial activity against Pseudomonas aeruginosa after 24 hrs by broth dilution test
Staphylococcus aureus [7] = assay: Antimicrobial activity against Staphylococcus aureus assessed as zone of inhibition at 100 ug/well after 24 hrs by agar well diffusion method; conditions: read-out: DIZ
Pseudomonas aeruginosa [8] = assay: Antimicrobial activity against Pseudomonas aeruginosa assessed as zone of inhibition at 50 ug/well after 24 hrs by agar well diffusion method; conditions: read-out: DIZ
Pseudomonas aeruginosa [9] = assay: Bactericidal activity against Pseudomonas aeruginosa incubated for 24 hrs followed by replating on sterile nutrient broth and incubated for 24 hrs by broth dilution test
Klebsiella pneumoniae [10] = assay: Antimicrobial activity against Klebsiella pneumoniae assessed as zone of inhibition at 75 ug/well after 24 hrs by agar well diffusion method; conditions: read-out: DIZ
Aspergillus niger [11] = assay: Antifungal activity against Aspergillus niger assessed as zone of inhibition at 50 ug/well after 48 hrs by agar well diffusion method; conditions: read-out: DIZ
Klebsiella pneumoniae [12] = assay: Antimicrobial activity against Klebsiella pneumoniae assessed as zone of inhibition at 100 ug/well after 24 hrs by agar well diffusion method; conditions: read-out: DIZ
Bacillus subtilis [13] = assay: Antimicrobial activity against Bacillus subtilis assessed as zone of inhibition at 50 ug/well after 24 hrs by agar well diffusion method; conditions: read-out: DIZ
Klebsiella pneumoniae [14] = assay: Antimicrobial activity against Klebsiella pneumoniae assessed as zone of inhibition at 50 ug/well after 24 hrs by agar well diffusion method; conditions: read-out: DIZ
Aspergillus niger [15] = assay: Antifungal activity against Aspergillus niger assessed as zone of inhibition at 75 ug/well after 48 hrs by agar well diffusion method; conditions: read-out: DIZ
Penicillium chrysogenum [16] = assay: Antifungal activity against Penicillium chrysogenum assessed as zone of inhibition at 50 ug/well after 48 hrs by agar well diffusion method; conditions: read-out: DIZ
Penicillium chrysogenum [17] = assay: Antifungal activity against Penicillium chrysogenum assessed as zone of inhibition at 100 ug/well after 48 hrs by agar well diffusion method; conditions: read-out: DIZ
Bacillus subtilis [18] = assay: Antimicrobial activity against Bacillus subtilis assessed as zone of inhibition at 75 ug/well after 24 hrs by agar well diffusion method; conditions: read-out: DIZ
Aspergillus niger [19] = assay: Fungicidal activity against Aspergillus niger incubated for 48 hrs followed by replating on PDA and incubated for 48 hrs by broth dilution test
Aspergillus niger [20] = assay: Antifungal activity against Aspergillus niger assessed as zone of inhibition at 100 ug/well after 48 hrs by agar well diffusion method; conditions: read-out: DIZ
Aspergillus niger [21] = assay: Antifungal activity against Aspergillus niger after 48 hrs by broth dilution test
Penicillium chrysogenum [22] = assay: Antifungal activity against Penicillium chrysogenum after 48 hrs by broth dilution test
Pseudomonas aeruginosa [23] = assay: Antimicrobial activity against Pseudomonas aeruginosa assessed as zone of inhibition at 100 ug/well after 24 hrs by agar well diffusion method; conditions: read-out: DIZ
Penicillium chrysogenum [24] = assay: Antifungal activity against Penicillium chrysogenum assessed as zone of inhibition at 75 ug/well after 48 hrs by agar well diffusion method; conditions: read-out: DIZ
Klebsiella pneumoniae [25] = assay: Bactericidal activity against Klebsiella pneumoniae incubated for 24 hrs followed by replating on sterile nutrient broth and incubated for 24 hrs by broth dilution test
Staphylococcus aureus [26] = assay: Antimicrobial activity against Staphylococcus aureus assessed as zone of inhibition at 75 ug/well after 24 hrs by agar well diffusion method; conditions: read-out: DIZ
Staphylococcus aureus [27] = assay: Bactericidal activity against Staphylococcus aureus incubated for 24 hrs followed by replating on sterile nutrient broth and incubated for 24 hrs by broth dilution test
Bacillus subtilis [28] = assay: Antimicrobial activity against Bacillus subtilis after 24 hrs by broth dilution test
Pseudomonas aeruginosa [29] = assay: Antimicrobial activity against Pseudomonas aeruginosa assessed as zone of inhibition at 75 ug/well after 24 hrs by agar well diffusion method; conditions: read-out: DIZ
Bacillus subtilis [30] = assay: Bactericidal activity against Bacillus subtilis incubated for 24 hrs followed by replating on sterile nutrient broth and incubated for 24 hrs by broth dilution test

MIC (Klebsiella pneumoniae [3]): 50 µg/mL (≈ 148 µM)
MIC (Staphylococcus aureus [5]): 100 µg/mL (≈ 296 µM)
MIC (Pseudomonas aeruginosa [6]): 25 µg/mL (≈ 73.9 µM)
MIC (Aspergillus niger [21]): 25 µg/mL (≈ 73.9 µM)
MIC (Penicillium chrysogenum [22]): 100 µg/mL (≈ 296 µM)
MIC (Bacillus subtilis [28]): 12.5 µg/mL (≈ 36.9 µM)
Compound: O=C(NS(=O)(=O)/C=C/c1ccc([N+](=O)[O-])cc1)c1cccs1
zone of inhibition at 100 µg/disc (Bacillus subtilis [1]): 36 mm
MFC (Penicillium chrysogenum [2]): > 200 µg/mL
zone of inhibition at 50 µg/disc (Staphylococcus aureus [4]): 19 mm
zone of inhibition at 100 µg/disc (Staphylococcus aureus [7]): 25 mm
zone of inhibition at 50 µg/disc (Pseudomonas aeruginosa [8]): 16 mm
MBC (Pseudomonas aeruginosa [9]): 100 µg/mL (≈ 296 µM)
zone of inhibition at 75 µg/disc (Klebsiella pneumoniae [10]): 30 mm
zone of inhibition at 50 µg/disc (Aspergillus niger [11]): 23 mm
zone of inhibition at 100 µg/disc (Klebsiella pneumoniae [12]): 31 mm
zone of inhibition at 50 µg/disc (Bacillus subtilis [13]): 30 mm
zone of inhibition at 50 µg/disc (Klebsiella pneumoniae [14]): 26 mm
zone of inhibition at 75 µg/disc (Aspergillus niger [15]): 25 mm
zone of inhibition at 50 µg/disc (Penicillium chrysogenum [16]): 22 mm
zone of inhibition at 100 µg/disc (Penicillium chrysogenum [17]): 27 mm
zone of inhibition at 75 µg/disc (Bacillus subtilis [18]): 32 mm
MFC (Aspergillus niger [19]): 100 µg/mL (≈ 296 µM)
zone of inhibition at 100 µg/disc (Aspergillus niger [20]): 28 mm
zone of inhibition at 100 µg/disc (Pseudomonas aeruginosa [23]): 21 mm
zone of inhibition at 75 µg/disc (Penicillium chrysogenum [24]): 24 mm
MBC (Klebsiella pneumoniae [25]): 200 µg/mL (≈ 591 µM)
zone of inhibition at 75 µg/disc (Staphylococcus aureus [26]): 22 mm
MBC (Staphylococcus aureus [27]): > 200 µg/mL
zone of inhibition at 75 µg/disc (Pseudomonas aeruginosa [29]): 19 mm
MBC (Bacillus subtilis [30]): 50 µg/mL (≈ 148 µM)

Reference: ChEMBL document CHEMBL4251595, “Green approach for the synthesis of thiophenyl pyrazoles and isoxazoles by adopting 1,3-dipolar cycloaddition methodology and their antimicrobial activity” (2018)
